The values below come from patent US10676471B2, “Cycloalkyl-linked diheterocycle derivatives” (Pfizer Inc., priority 2014, dated 2020).

Each structure is given as a SMILES string.

The test system of the assay is BT20 Cell. The assay can be described thus: Cancer Cell Lysate Total L-Glutamate Assay. The format is cell-based. The following applies: Homo sapiens, BT-20, 2 h, total L-glutamate in cell lysate, BT20 cells, 2 hour incubation with test compound. The method, then:
Cancer Cell Lysate Total L-Glutamate Assay
Cancer cell lines (BT20, HCT116, SKOV3, HCC70, SUM149, MDA-MB-231, etc.) were plated in 96 well plates and were used for the total L-glutamate assay when the monolayer was ca. 80% confluent. The media was changed and fresh media containing L-glutamine was added to the 96 well plates, just before incubation of the cells with test compound. The test compound was diluted in 100% DMSO using a two-fold or three-fold serial dilution. Small volumes of the dilutions of test compound were added to the 96 well plates so the final DMSO concentration was 0.5% v/v in the cell culture medium. The cells were incubated at 37° C., 5% CO2, and 95% air for 2 hours. Following the 2 hour incubation, the cells were washed with water 2 times. After the last water wash, 100 μL of 50 mM Tris-HCl pH 7.4 and 0.01% Tween-20 was added to each well and the plate was frozen at −80° C. The 96 well plate was frozen and thawed a total of 3 times and then sonicated for 5 min at 4° C. in a bath sonicator. Following sonication, the 96 well plate was centrifuged for 5 min at 1000 rpm and 10 μL of the supernatant was transferred to a 384 well assay plate.
Total L-glutamate (L-glutamic acid) in the cell lysis supernatant was detected using glutamate oxidase, horseradish peroxidase and Amplex Red reagent (10-acetyl-3,7-dihydroxy phenoxazine, Invitrogen # A22177). In this assay, L-glutamate was oxidized by glutamate oxidase to produce alpha-ketoglutarate (2-oxopentane dioic acid), NH3 and H202. The H2O2 (hydrogen peroxide) was used by horseradish peroxidase (HRP) to oxidize the Amplex Red Reagent to resorufin which is a fluorescent molecule. When resorufin is excited with light with a wavelength 530-560 nm, it emits light at approximately 585 nm. For detection of total L-glutamate in 10 μL of lysate, 15 μL of an enzyme mixture was added to each well of the 384 well assay plate. The enzyme mixture consisted of 50 mM Tris-HCl pH 7.4, 0.01% Tween-20, 50 μM Amplex Red reagent (final concentration), 0.04 U/mL L-glutamate oxidase (final concentration), and 0.125 U/mL HRP (final concentration). The 384 well assay plate was incubated at room temperature for 5 min and then the fluorescence intensity of each well was measured at 585 nm using a 530-560 nm excitation wavelength in a plate based fluorimeter such as an LJL Analyst or a Tecan Infinite plate reader. Standard curves were constructed for this assay using dilutions of a L-glutamate standard. IC50 were calculated by plotting the relative fluorescent units vs log of the inhibitor concentration and fitting the data to the four parameter logistic equation.
Reference: Chapman J. and Zhou M. (1999) Microplate-based fluorometric methods for the enzymatic determination of I-glutamate: application in measuring I-glutamate in food samples. Analytica Chim Acta 402:47-52.

The IC50 is the concentration at which inhibition is half-maximal. `CCC(=O)Nc1ccc(C[C@@H]2CC[C@H](c3nnc(NC(=O)Cc4ccn(C)n4)s3)C2)nn1` (single isomer, unassigned) [Example 92, N-(6-{[(cis)-3-(5-{[(1-methyl-1H-pyrazol-3-yl)acetyl]amino}-1,3,4-thiadiazol-2-yl)cyclopentyl]methyl}pyridazin-3-yl)propanamide] registered an IC50 of 0.2 nM. With `CC(=O)Nc1ccc(C[C@H]2CC[C@@H](c3nnc(NC(=O)Cc4ccccn4)s3)C2)nn1` (single isomer, unassigned) [Example 68, N-{5-[(cis)-3-{[6-(acetylamino)pyridazin-3-yl]methyl}cyclopentyl]-1,3,4-thiadiazol-2-yl}-2-(pyridin-2-yl)acetamide], the 50% inhibitory concentration (IC50) came to 7.1 nM. This IC50 lies about 35-fold higher than the previous one. Consider `O=C(Cc1ccccn1)Nc1ccc(C[C@@H]2CC[C@H](c3nnc(NC(=O)c4ccccn4)s3)C2)nn1` (single isomer, unassigned) [Example 117, N-{5-[(cis)-3-({6-[(pyridin-2-ylacetyl)amino]pyridazin-3-yl}methyl)cyclopentyl]-1,3,4-thiadiazol-2-yl}pyridine-2-carboxamide], for which the IC50 came out at 1.4 nM. Against the preceding compound, the IC50 is about 5.1-fold lower. For `O=C(Cc1ccccn1)Nc1nnc(C2CC3(C2)CC(c2nnc(NC(=O)Cc4ccccn4)s2)C3)s1` (racemic) [Example 61, N,N′-(spiro[3.3]heptane-2,6-diyldi-1,3,4-thiadiazole-5,2-diyl)bis[2-(pyridin-2-yl)acetamide]] the value was 1.6 nM; for `Cn1ccc(CC(=O)Nc2nnc([C@H]3CC[C@@H](Cc4ccc(NC(=O)Cc5ccccn5)nn4)C3)s2)n1` (single isomer, unassigned) [Example 126, 2-(1-methyl-1H-pyrazol-3-yl)-N-{5-[(cis)-3-({6-[(pyridin-2-ylacetyl)amino]pyridazin-3-yl}methyl)cyclopentyl]-1,3,4-thiadiazol-2-yl}acetamide], 0.5 nM; for `CC(=O)Nc1nnc([C@H]2CC[C@@H](Cc3nnc(NC(=O)Cc4ccc(C)nc4)s3)C2)s1` (single isomer, unassigned) [Example 53, N-[5-({(cis)-3-[5-(acetylamino)-1,3,4-thiadiazol-2-yl]cyclopentyl}methyl)-1,3,4-thiadiazol-2-yl]-2-(6-methylpyridin-3-yl)acetamide], 6.8 nM.

The compound `CCNc1nnc([C@H]2C[C@H](Cc3ccc(NC(=O)Cc4ccccn4)nn3)C2)s1` (single isomer, unassigned) [Example 113, N-[6-({trans-3-[5-(ethylamino)-1,3,4-thiadiazol-2-yl]cyclobutyl}methyl)pyridazin-3-yl]-2-(pyridin-2-yl)acetamide] came in with a half-inhibitory concentration (IC50) of 5.6 nM. For `O=C(Cc1ccccn1)Nc1ccc(CC2CCC(c3nnc(NC(=O)Cc4ccccn4)s3)C2)nn1` (racemic) [Example 70, (rac)-2-(pyridin-2-yl)-N-{5-[(cis)-3-({6-[(pyridin-2-ylacetyl)amino]pyridazin-3-yl}methyl)cyclopentyl]-1,3,4-thiadiazol-2-yl}acetamide] the value was 0.2 nM; for `O=C(Cc1ccccc1)Nc1nnc(C[C@H]2CC[C@@H](c3nnc(NC(=O)Cc4ccccc4)s3)C2)s1` (single isomer, unassigned) [Example 10], 33.3 nM; for `CC(=O)Nc1nnc(C2CC[C@@H](Cc3nnc(NC(=O)c4ccccc4)s3)C2)s1` (single isomer, unassigned) [Example 13, N-[5-({(cis)-3-[5-(acetylamino)-1,3,4-thiadiazol-2-yl]cyclopentyl}methyl)-1,3,4-thiadiazol-2-yl]benzamide], 23.8 nM.

On to `Cn1ccc(CC(=O)Nc2nnc([C@@H]3CC[C@H](Cc4ccc(NC(=O)Cc5ccccn5)nn4)C3)s2)n1` (single isomer, unassigned) [Example 127, 2-(1-methyl-1H-pyrazol-3-yl)-N-{5-[(cis)-3-({6-[(pyridin-2-ylacetyl)amino]pyridazin-3-yl}methyl)cyclopentyl]-1,3,4-thiadiazol-2-yl}acetamide], for which the IC50 is 0.7 nM. Against the preceding compound, the IC50 is about 34-fold lower. For `Nc1nnc(C[C@H]2CC[C@@H](c3nnc(N)s3)C2)s1` (single isomer, unassigned) [Example 41] the value was more than 40400 nM; for `CC(C)C(=O)Nc1nnc(C[C@H]2C[C@@H](c3nnc(NC(=O)Cc4ccccn4)s3)C2)s1` (single isomer, unassigned) [Example 104, 2-methyl-N-{5-[(cis-3-{5-[(pyridin-2-ylacetyl)amino]-1,3,4-thiadiazol-2-yl}cyclobutyl)methyl]-1,3,4-thiadiazol-2-yl}propanamide], 8.6 nM; for `C[C@@H](C(=O)Nc1nnc(C[C@@H]2CC[C@H](c3nnc(NC(=O)[C@H](C)c4cccnc4)s3)C2)s1)c1cccnc1` (single isomer, unassigned) [Example 37, 2-(pyridin-3-yl)-N-(5-{[(cis)-3-(5-{[2-(pyridin-3-yl)propanoyl]amino}-1,3,4-thiadiazol-2-yl)cyclopentyl]methyl}-1,3,4-thiadiazol-2-yl)propanamide], 19.4 nM.

In turn, `CC(=O)Nc1ccc(C[C@H]2C[C@@H](c3nnc(NC(=O)Cc4ccccn4)s3)C2)nn1` (single isomer, unassigned) [Example 114, N-[5-(cis-3-{[6-(acetylamino)pyridazin-3-yl]methyl}cyclobutyl)-1,3,4-thiadiazol-2-yl]-2-(pyridin-2-yl)acetamide] had a concentration for half-maximal inhibition (IC50) of 6.5 nM. `O=C(Cc1ccccn1)Nc1ccc(C[C@@H]2CC[C@H](c3nnc(NC(=O)Cc4ccccn4)s3)C2)nn1` (single isomer, unassigned) [Example 72, 2-(pyridin-2-yl)-N-{5-[(cis)-3-({6-[(pyridin-2-ylacetyl)amino]pyridazin-3-yl}methyl)cyclopentyl]-1,3,4-thiadiazol-2-yl}acetamide] came in with an IC50 of 0.9 nM.

As to `Cn1ccc(C(=O)Nc2nnc(C[C@H]3CC[C@@H](c4nnc(NC(=O)Cc5ccccn5)s4)C3)s2)n1` (racemic) [Example 137, (rac)-1-methyl-N-(5-{[(cis)-3-{5-[(pyridin-2-ylacetyl)amino]-1,3,4-thiadiazol-2-yl}cyclopentyl]methyl}-1,3,4-thiadiazol-2-yl)-1H-pyrazole-3-carboxamide], the midpoint of inhibition, the IC50, lay at 4.4 nM. For the compound `CCC(=O)Nc1nnc([C@H]2C[C@H](Cc3nnc(NC(=O)Cc4ccccn4)s3)C2)s1` (single isomer, unassigned) [Example 106, N-{5-[trans-3-({5-[(pyridin-2-ylacetyl)amino]-1,3,4-thiadiazol-2-yl}methyl)cyclobutyl]-1,3,4-thiadiazol-2-yl}propanamide], the 50% inhibitory concentration (IC50) is 13.7 nM.

In turn, `O=C(Cc1ccccn1)Nc1nnc(C2CCC(c3nnc(NC(=O)Cc4ccccn4)s3)CC2)s1` (racemic) [Example 140, N,N′-(cyclohexane-1,4-diyldi-1,3,4-thiadiazole-5,2-diyl)bis[2-(pyridin-2-yl)acetamide]] gave an IC50 of 380 nM. This IC50 lies about 28-fold higher than the previous one.

Take `O=C(Cc1ccccn1)Nc1ccc(C[C@H]2CC[C@@H](c3nnc(NC(=O)C[C@H]4CCCO4)s3)C2)nn1` (single isomer, unassigned) [Example 131]: the IC50 amounted to 3.1 nM.

Regarding `O=C(Cc1ccccn1)Nc1ccc(C[C@H]2CC[C@@H](c3nnc(Nc4ccccn4)s3)C2)nn1` (single isomer, unassigned) [Example 74, 2-(pyridin-2-yl)-N-[6-({(cis)-3-[5-(pyridin-2-ylamino)-1,3,4-thiadiazol-2-yl]cyclopentyl}methyl)pyridazin-3-yl]acetamide], the half-inhibitory concentration (IC50) is 3.4 nM.

On to `O=C(Cc1ccccn1)Nc1nnc(C2CCC(c3nnc(NC(=O)Cc4ccccn4)s3)C2)s1` (racemic) [Example 138, N,N′-[cyclopentane-1,3-diyldi-1,3,4-thiadiazole-5,2-diyl]bis[2-(pyridin-2-yl)acetamide]], for which the IC50 was found to be 120 nM. On to `O=C(Cc1ccccn1)Nc1nnc(C[C@@H]2CC[C@@H](c3nnc(Nc4ccccn4)s3)C2)s1` (single isomer, unassigned) [Example 85, 2-(pyridin-2-yl)-N-[5-({3-[5-(trans)(pyridin-2-ylamino)-1,3,4-thiadiazol-2-yl]cyclopentyl}methyl)-1,3,4-thiadiazol-2-yl]acetamide], for which the IC50 amounted to 8.2 nM. Compared with the last compound, the IC50 is about 15-fold lower.
